{
  "source": "paper PMC11640089",
  "about": "“JRM-28, a Novel HDAC2 Inhibitor, Upregulates Plasticity-Associated Proteins in Hippocampal Neurons and Enhances Morphological Plasticity via Activation of CREB: Implications for Alzheimer’s Disease” (Cells, 2024)",
  "key": {"HDAC2 [1]": {"tested_on": "HDAC2", "experiment": "HDAC2 immunoblot and immunofluorescence in SHSY5Y cells", "assay_type": "cell-based, human", "description": "Immunofluorescence analysis was performed as described earlier. Briefly, cells cultured on coverslip contained in six-well plates (Lab-Tek II) were fixed with 4% paraformaldehyde for 20 min followed by two rinses in TBST. Samples were incubated in a 1:1 solution of TBST and blocking buffer containing rabbit anti-NR2A (1:250), anti-GluR1 (1:250), ant-HDAC2 (1:250), anti-CREB (1:250), and anti-MAP2 (1:250) for 2 h at 37 °C. After three washes in PBST (15 min each), slides were further incubated with FIT-C and TRIT-C-conjugated secondary antibodies. For negative controls, a set of culture slides was incubated under similar conditions with secondary antibodies and without the primary antibodies (Table 3). The samples were mounted and observed under an Accuscope fluorescent microscope. The images were captured and merged in CaptaVision^TM imaging software.\nImmunoblot analysis was carried out as described earlier. Briefly, SHSY5Y neuronal cell homogenates were electrophoresed by 4–12% Tris-Glycine gradient gel, proteins were transferred onto a 0.45 μm nitrocellulose membrane, and the protein band was visualized with Odyssey Sa infrared scanner after immunolabeling with primary antibodies followed by infrared fluorophore-tagged secondary antibody (Licor Biosciences, Lincoln, NE, USA)."}, "HDAC2 [2]": {"molecular_target": "HDAC2 (Homo sapiens, UniProt Q92769)", "sequence (Q92769 whole entry)": "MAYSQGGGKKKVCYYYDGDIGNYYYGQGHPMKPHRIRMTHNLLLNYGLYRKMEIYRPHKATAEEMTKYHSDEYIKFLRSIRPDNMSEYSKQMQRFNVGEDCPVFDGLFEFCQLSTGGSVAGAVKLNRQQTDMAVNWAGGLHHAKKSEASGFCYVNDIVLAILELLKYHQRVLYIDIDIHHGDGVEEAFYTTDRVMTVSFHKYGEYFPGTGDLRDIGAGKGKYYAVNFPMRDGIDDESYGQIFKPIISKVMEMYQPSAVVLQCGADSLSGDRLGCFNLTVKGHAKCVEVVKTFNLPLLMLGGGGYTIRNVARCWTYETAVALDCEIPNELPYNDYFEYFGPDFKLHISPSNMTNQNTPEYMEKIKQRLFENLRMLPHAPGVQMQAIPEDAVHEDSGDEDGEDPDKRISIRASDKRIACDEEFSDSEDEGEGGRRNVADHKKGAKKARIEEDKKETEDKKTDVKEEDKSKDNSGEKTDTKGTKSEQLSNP", "experiment": "Endogenous HDAC2 activity assay (luminescence) in SHSY5Y cells", "assay_type": "cell-based", "set-up": "endogenous in cells; host or cells: SHSY5Y", "details": "not reduced by DTT; 30 min of treatment", "description": "Next, JRM-28 in the presence of DTT was evaluated by cytotoxicity assays. A TUNEL assay was performed with SHSY5Y neuronal cells using increasing concentrations of JRM-28 in the presence of DTT. […] The results were further confirmed by quantitative analysis (Figure 4B). […] Next, we wanted to study the effect of lower concentrations of […] on the regulation of HDAC2 activity. […] To further confirm this finding, we performed a luminescence-based HDAC2 activity assay in SHSY5Y cells with increasing doses of JRM-28. JRM-28 was not reduced by DTT during the treatment, as the cellular reductase and oxidoreductase enzymes are expected to reduce JRM-28 in its “active 28a/b” components. […]\nFigure 4 Exploring the cytotoxicity of JRM-28. SHSY5Y neurons were treated with different doses of JRM-28 for 24 h and then analyzed for different cytotoxicity assays. […] TUNEL^+ve cells were detected as condensed brown bodies, whereas nuclei were stained with hematoxylin (blue). (B) TUNEL bodies were counted per 10 randomly selected cells in 20 different images. Results were plotted as a dotted boxplot, and the significance of the mean was analyzed by one-way ANOVA (single effector = treatment). **** p < 0.00001 versus DMSO control. […] (E) The band density of individual HDAC2 bands was assessed in ImageJ software (version 1.45) followed by normalization with respective β-actin band density. […]"}, "iPSC-derived AD neurons": {"tested_on": "iPSC-derived AD neurons", "experiment": "NMDA/AMPA-driven calcium entry assay in iPSC-derived AD neurons", "assay_type": "cell-based, human", "description": "Mouse primary hippocampal neurons and AD neurons were loaded with Fluo4-fluorescence conjugated calcium dye (Invitrogen Molecular Probes, Cat #F10471) and incubated at 37 °C for 60 min, as described before. Briefly, fluorescence excitation and emission spectra were recorded in a Perkin–Elmer Victor X2 Fluorimetric Spectrometer (Versiti Blood Center, Wauwatosa, WI, USA) in the presence of 50 μM NMDA and AMPA solutions. The recording was performed with 100 repeats at 0.1 ms intervals. The oscillogram was generated with the help of Parkin Elmer 2030 software that was connected to the Victor X2 calcium recorder unit. The real-time calcium noise graph was generated as a kinetic chart plotted on a linear scale."}, "SHSY5Y cells": {"tested_on": "SHSY5Y cells", "experiment": "Lactate dehydrogenase (LDH) release cytotoxicity assay", "assay_type": "cell-based, human", "details": "24 h", "description": "Lactate dehydrogenase (LDH) cell cytotoxicity assay was performed per the manufacturer’s protocol. Briefly, SHSY5Y cells were grown in a 96-well plate with up to 70% confluency followed by treatment with increasing doses of JRM-28 under serum-free conditions. Serially diluted JRM-28 was used in a concentration range from 75 nM to 50 μM. As a control, serially diluted DMSO controls were added. After 24 h, supernatants were harvested by a multi-channel pipette and then assessed for LDH release with CyQUANT™ LDH Cytotoxicity Assay Kit. Briefly, 50 μL of supernatant was incubated with an equal volume of the working reaction mixture (generated after combining the 600 µL of assay buffer Stock Solution with the 11.4 mL of Substrate Stock substrate mix), incubated at room temperature for 30 min protected from light, terminated by 50 μL of stop solution, and then measured at 490 nm using a microplate absorbance spectrophotometer (Perkin Elmer Enspire 2300 Multilabel Multimode Microplate Reader). The percentage of cytotoxicity was determined following the formula provided with the LDH assay kit and then converted to relative cell cytotoxicity."}},
  "data": [
    {"smiles": "CN(C(=O)CC(O)/C=C/CCSS(=O)(=O)CC/C=C/C(O)CC(=O)N(C)c1ccccc1)c1ccccc1", "note": "(stereo not drawn) [JRM-28, S-((E)-5-hydroxy-7-(methyl(phenyl)amino)-7-oxohept-3-en-1-yl) (E)-5-hydroxy-7-(methyl(phenyl)amino)-7-oxohept-3-ene-1-sulfonothioate]", "values": [
      {"measurement": "nuclear translocation of HDAC2 (immunocytochemistry)", "setting": "HDAC2 [1]; 5 µM", "result": "significantly arrested the nuclear translocation of HDAC2"},
      {"measurement": "HDAC2 expression in nuclei (dual IF with CREB)", "setting": "HDAC2 [1]; 5 µM, SHSY5Y cells", "result": "significantly attenuated the expression of HDAC2 in the nuclei"},
      {"measurement": "HDAC2 expression (immunoblot)", "setting": "HDAC2 [1]; 2, 5, and 10 µM, 24 h, versus control", "result": "did not upregulate the expression of HDAC2"},
      {"measurement": "IC50", "setting": "HDAC2 [2]", "result": 5.44, "unit": "µM"},
      {"measurement": "AMPA-driven calcium influx", "setting": "iPSC-derived AD neurons; 5 µM", "result": "strong AMPA-driven calcium influx"},
      {"measurement": "NMDA-driven calcium entry", "setting": "iPSC-derived AD neurons; 5 µM", "result": "significantly high"},
      {"measurement": "concentration of maximum NMDA-driven calcium entry", "setting": "iPSC-derived AD neurons; 2, 5, and 10 µM tested", "result": 10, "unit": "µM"},
      {"measurement": "NMDA- and AMPA-induced calcium entry after creb siRNA", "setting": "iPSC-derived AD neurons; creb siRNA-transfected AD neurons", "result": "strongly attenuated"},
      {"measurement": "LDH release", "setting": "SHSY5Y cells; 30 µM and 50 µM", "result": "significantly induced LDH release"},
      {"measurement": "LDH release", "setting": "SHSY5Y cells; concentrations lower than 30 µM", "result": "but not lower concentrations of JRM-28, significantly induced LDH release"}
    ]}
  ]
}
